Laboratory results: paper PMC9154793, “Design, synthesis, and biological evaluation of triazole-pyrimidine-methylbenzonitrile derivatives as dual A2A/A2B adenosine receptor antagonists” (Journal of Enzyme Inhibition and Medicinal Chemistry, 2022)
Where two headings read alike, the source gives them in different places.

How the values were obtained:
[1] = Metabolic stability in human liver microsomes; assay type: in vitro ADME; conditions: human, microsomes
Protocol: (§1) The metabolic stability is an important focus for further compound optimisation. Compounds 7f, 7i, and AB928 were chosen to evaluate the stability in rat liver microsomes and human liver microsomes. For the microsomal metabolic experiment, 7-ethoxycoumarin (7-EC) was used as a control. As shown in Table 4 (see Supporting information for raw data), the CLint(liver) of 7-EC in rats and humans was 10.0 and 9.0 ml/min/g liver, respectively, indicating the experimental test system was reliable.
(§2) Metabolic stabilities of compounds 7f, 7i, and AB928 in liver microsomes were studied with pooled human (male) liver microsomes solution (20 mg/ml) and male Sprague–Dawley rats pooled liver microsomes solution (20 mg/ml) purchased from Research Institute for Liver Diseases (Shanghai) Co. Ltd. Both liver microsomes solutions (140 μl) were diluted by 3948 μl of water and 280 μl of phosphate buffered saline. The assay procedure: 640 μl of diluted liver microsomes solution was added to a solution of compound working solution (16 μl, 25 μM in DMSO) and the mixed solution was incubated at 37 °C for 5 min. Then 160 μl of NADPH generating system was added and take out 100 μl from the mixed solution was added 200 μl of acetonitrile solution to stop the reaction at the set incubation time (0 min, 10 min, 20 min, 30 min, 40 min, 50 min, and 60 min). All stopped reaction solutions were vortex mixed (3 min) and centrifuged (10,000 rpm, 4 °C for 10 min). Then 50 μl of the supernatant was analysed by UPLC-MS/MS system (details of the analytical method see Supporting information). […]
(§3) 8. Metabolic stability in human and rat liver microsomes
(§4) Metabolic stabilities of compounds 7f, 7i and AB928 in liver microsomes were studied with pooled human (male) liver microsomes solution (20 mg/mL) and male Sprague - Dawley rats pooled liver microsomes solution (20 mg/mL) purchased from Research Institute for Liver Diseases (Shanghai) Co. Ltd. Both liver microsomes solutions (140 μL) were diluted by 3948 μL of water and 280 μL of phosphate buffered saline. The assay procedure: 640 μL of diluted liver microsomes solution was added to a solution of compound working solution (16 μL, 25 μM in DMSO) and the mixed solution was […]
(§5) (1 picture or pasted object on this page, not shown here) […]
(§6) incubated at 37 ℃ for 5 min. Then 160 μL of NADPH generating system was added and take out 100 μL from the mixed solution was added 200 μL of acetonitrile solution to stop the reaction at the set incubation time (0 min, 10 min, 20 min, 30 min, 40 min, 50 min, and 60 min). All stopped reaction solutions were vortex mixed (3 min) and centrifuged (10000 rpm, 4 ℃ for 10 min). Then 50 μL of the supernatant was analyzed […]
(§7) 8.2 Chromatography and mass spectrometry conditions
(§8) UPLC was performed using an […] UPLC system (Waters, Milford, MA, […]
(§9) USA). Separation was achieved on a Waters BEH C18 column(100 mm × 2.1 mm， 1.7 μm) at 40 ℃. The injection volume of the sample solution was 5 μL. The mobile phase consisted of water (0.1% formic acid and ammonium acetate) and acetonitrile solution (20:80, v/v) at a flow rate of 0.4 mL/min within a running time of 6 min. Mass spectrometric analysis was performed on a Waters Xevo TQ-S triple quadrupole instrument using electrospray ionization in positive mode. Quantification was performed using multiple reaction monitoring (MRM) mode to monitor precursor-product ion transitions (Table S1).
(§10) Table S1. Conditions of MRM Detection. […]
(§11) Table S2. Raw data of metabolic stability in human and rat liver microsomes. […]
(§12) (min) Hum Rat Hum Rat Hum Rat Hum Rat
(§13) 9. Analytical method of pharmacokinetics assay
(§14) Animal experiments were performed according to the institutional ethical guidelines on animal care and approved by the Institute Animal Care and Use Committee at Binzhou […]
(§15) Female Bal b/c mice (sourced from Jinan Pengyue Experimental Animal Breeding […]

[2] = Metabolic stability in rat liver microsomes; assay type: in vitro ADME, Sprague–Dawley rats
Protocol: as §1, §2, §3, §4, §5, §6, §7, §8, §9, §10, §11, §12, §13, §14, §15

human A2A AR [3] = target: T1, human A2A AR (Homo sapiens, UniProt P29274); test: cAMP functional assay in CHO-K1/ADORA2A/Gα15 cells (NECA-stimulated, HTRF); assay type: cell-based; conditions: for fold less active than compound 7i (cAMP IC50, A2A receptor): ratio of cAMP IC50 values vs 7i;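 for all read-outs here: inhibition of NECA-driven intracellular cAMP build-up in the A2A-expressing cells, quantified with cAMP-d2 plus Eu3+-labelled anti-cAMP detection reagent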
Protocol: (§16) In the cAMP assay, CHO-K1/ADORA2A/Gα15 cells expressing human A2A AR and CHO-K1/ADORA2b/Gα15 cells expressing human A2B AR were activated by 5′-(N-ethylcarboxamido)adenosine (NECA) and triggered the accumulation of intracellular cAMP concentration.
(§17) CHO-K1/ADORA2A/Gα15 cells expressing human A2A AR and CHO-K1/ADORA2b/Gα15 cells expressing human A2B AR were both constructed by Genscript Biotech Corporation. […] The test stock solutions were diluted with different gradients for use. The procedure was exemplified by the cAMP functional assay on the A2A receptor: 10,000 cells/well of CHO-K1/ADORA2A/Gα15 were seeded in a 384-well plate in 20 μl of assay buffer. […] Then, 10 μl of detection reagent (cAMP-d2 and anti-cAMP-Eu3+) was added into each well of the plate and incubated at room temperature for 1 h.

human A2B AR = target: T2, human A2B AR (Homo sapiens, UniProt P29275); test: cAMP functional assay in CHO-K1/ADORA2b/Gα15 cells (NECA-stimulated, HTRF); assay type: cell-based
T2 sequence (P29275 1-332): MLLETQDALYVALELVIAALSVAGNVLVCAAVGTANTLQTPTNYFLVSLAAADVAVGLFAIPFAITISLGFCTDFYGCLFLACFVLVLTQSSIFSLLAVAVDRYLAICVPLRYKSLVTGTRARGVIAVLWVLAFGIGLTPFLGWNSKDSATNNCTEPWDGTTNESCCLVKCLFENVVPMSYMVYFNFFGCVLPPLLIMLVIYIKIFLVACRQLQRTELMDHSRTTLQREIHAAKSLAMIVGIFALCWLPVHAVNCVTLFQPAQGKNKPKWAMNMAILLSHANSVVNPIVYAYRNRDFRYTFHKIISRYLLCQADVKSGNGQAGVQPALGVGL
Protocol: as §16, §17

human A2A AR [4] = target: T1, human A2A AR; test: A2A AR radioligand binding assay ([3H]-ZM241385, HEK-293 cell membranes)
Protocol: We further tested the IC50 values of compounds 7f, 7i, 17, 22, and AB928 in inhibiting the cAMP production of CHO cells expressing hA2A AR or hA2B AR (Table 2). […] In addition, the competitive binding experiments of compounds 7f, 7i, and AB928 were performed using membrane preparation of HEK-293 cells expressing human A2A AR (Table 3).
The target compounds were tested to evaluate their affinity for the A2A AR on HEK-293 cell membranes expressing human A2A AR. [^3H]-ZM241385 was used as a radioligand. The assay buffer (50 mM Tris-HCl, pH 7.4; 10 mM MgCl2; 1 mM EDTA; 1 μg/ml adenosine deaminase), wash buffer (50 mM Tris-HCl, pH 7.4; 154 mM NaCl), and 0.5% PEI solution were prepared and stored at 4 °C for use. The affinities were tested following the procedure reported by Hu et al[4].

[5] = CHO cells expressing hA2A AR, mean ± SEM, read-out: cAMP IC50 hA2A AR
[6] = CHO-K1, compound at 10 nM, relative to ZM241385 at 1 μM, mean ± SEM, read-out: hA2A AR (%) inhibition of cAMP, 10 nM
[7] = CHO-K1, compound at 100 nM, relative to ZM241385 at 1 μM, mean ± SEM, read-out: hA2A AR (%) inhibition of cAMP, 100 nM
[8] = CHO-K1, compound at 1000 nM, relative to ZM241385 at 1 μM, mean ± SEM, read-out: hA2A AR (%) inhibition of cAMP, 1000 nM
[9] = CHO cells expressing hA2B AR, mean ± SEM, read-out: cAMP IC50 hA2B AR
[10] = CHO-K1, compound at 100 nM, relative to ZM241385 at 1 μM, mean ± SEM, read-out: hA2B AR (%) inhibition of cAMP, 100 nM

T1 sequence (P29274 whole entry): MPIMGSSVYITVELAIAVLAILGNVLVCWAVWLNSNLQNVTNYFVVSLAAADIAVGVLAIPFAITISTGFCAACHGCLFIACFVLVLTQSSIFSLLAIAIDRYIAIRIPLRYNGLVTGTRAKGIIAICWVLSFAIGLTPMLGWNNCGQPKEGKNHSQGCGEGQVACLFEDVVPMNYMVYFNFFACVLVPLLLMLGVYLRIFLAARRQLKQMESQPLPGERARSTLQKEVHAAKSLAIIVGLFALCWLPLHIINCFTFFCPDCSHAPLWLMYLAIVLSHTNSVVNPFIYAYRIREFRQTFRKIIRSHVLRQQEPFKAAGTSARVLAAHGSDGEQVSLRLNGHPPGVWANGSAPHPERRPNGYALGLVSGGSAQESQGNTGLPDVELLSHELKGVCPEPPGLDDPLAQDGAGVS

In the case of `Cc1c(C#N)cccc1-c1cc(-c2cn(Cc3cccc(C(C)(C)O)n3)nn2)nc(N)n1` [AB928, reference compound], the “CLint(liver) Hum” value [1] is reported as 0.17 mL/min/g, the half-life at 0.49 µM ([1]; male) is reported as 7.22 h and the remaining at 10 min, 0.49 µM ([1]; male) is reported as 96.2%. It also gave a remaining at 20 min, 0.49 µM ([1]; male) of 104%, a remaining at 0.5 h, 0.49 µM ([1]; male) of 97% and a remaining at 40 min, 0.49 µM ([1]; male) of 91.8%. For the same compound, the remaining at 50 min, 0.49 µM ([1]; male) was 89%, the remaining at 1 h, 0.49 µM ([1]; male) was 94.4% and the remaining at 10 min, 0.49 µM ([2]; male, Sprague-Dawley, pooled rat liver microsomes, rat liver microsomes, 10 min) was 74.7%. For the same compound, the remaining at 20 min, 0.49 µM ([2]; male, Sprague-Dawley, pooled rat liver microsomes, rat liver microsomes, 20 min) was 67.4%, the remaining at 0.5 h, 0.49 µM ([2]; male, Sprague-Dawley, pooled rat liver microsomes, rat liver microsomes, 30 min) was 53.1% and the remaining at 40 min, 0.49 µM ([2]; male, Sprague-Dawley, pooled rat liver microsomes, rat liver microsomes, 40 min) was 42.8%. It also gave a remaining at 50 min, 0.49 µM ([2]; male, Sprague-Dawley, pooled rat liver microsomes, rat liver microsomes, 50 min) of 35.6%, a remaining at 1 h, 0.49 µM ([2]; male, Sprague-Dawley, pooled rat liver microsomes, rat liver microsomes, 60 min, read-out: Remaining (%, T = 60min) Rat) of 28.1% and a half-life at 0.49 µM ([2]; male, Sprague-Dawley, rat, pooled rat liver microsomes, read-out: T1/2 Rat) of 0.563 h. The “CLint(liver) Rat” value ([2]; rat liver microsomes) was 2.15 mL/min/g, the IC50 (human A2A AR [3]) was 2.75 ± 0.12 nM and the inhibition at 0.01 µM (human A2A AR [3]; CHO-K1, read-out: hA2A AR (%) inhibition of cAMP, 10 nM) was 20 ± 6.46%. For the same compound, the inhibition at 0.1 µM (human A2A AR [3]; CHO-K1, read-out: hA2A AR (%) inhibition of cAMP, 100 nM) was 96.8 ± 7.16%, the inhibition at 1 µM (human A2A AR [3]; CHO-K1, read-out: hA2A AR (%) inhibition of cAMP, 1000 nM) was 101 ± 5.55% and the IC50 (human A2B AR) was 25.5 ± 0.35 nM. The inhibition at 0.1 µM (human A2B AR; CHO-K1, read-out: hA2B AR (%) inhibition of cAMP, 100 nM) was 103 ± 1.04% and the IC50 (human A2A AR [4]) was 25.2 ± 0.74 nM.

With `Cc1ccc(-c2cc(-c3cn(Cc4cccc(C(C)(C)O)n4)nn3)nc(N)n2)o1` [Compound 17, 2-(6-((4-(2-Amino-6-(5-methylfuran-2-yl)pyrimidin-4-yl)-1H-1,2,3-triazol-1-yl)methyl)pyridin-2-yl)propan-2-ol] the IC50 (human A2A AR [3]; [5]) was 321 ± 94 nM, the inhibition at 0.01 µM (human A2A AR [3]; [6]) was 17.6 ± 2.78% and the inhibition at 0.1 µM (human A2A AR [3]; [7]) was 92.28 ± 0.61%. The inhibition at 1 µM (human A2A AR [3]; [8]) was 92.7 ± 2.87%, the “fold less active than compound 7i (cAMP IC50, A2A receptor)” value (human A2A AR [3]) was 52 fold and the melting point was 188 to 189 °C. The IC50 (human A2B AR; [9]) was 80 ± 13.4 nM and the inhibition at 0.1 µM (human A2B AR; [10]) was 64.4 ± 0.89%.

For `CC(C)(O)c1cccc(Cn2cc(-c3cc(-c4cccc(CF)c4)nc(N)n3)nn2)n1` [Compound 22, 2-(6-((4-(2-amino-6-(3-(fluoromethyl)phenyl)pyrimidin-4-yl)-1H-1,2,3-triazol-1-yl)methyl)pyridin-2-yl)propan-2-ol], the IC50 (human A2A AR [3]; [5]) was 67.2 ± 10.9 nM, the inhibition at 0.01 µM (human A2A AR [3]; [6]) was 22.4 ± 11.9% and the inhibition at 0.1 µM (human A2A AR [3]; [7]) was 94.7 ± 4.43%. For the same compound, the inhibition at 1 µM (human A2A AR [3]; [8]) was 93.6 ± 2.76%, the “fold less active than compound 7i (cAMP IC50, A2A receptor)” value (human A2A AR [3]) was 11 fold and the melting point was 76 to 77 °C. It also gave an IC50 (human A2B AR; [9]) of 178 ± 9.89 nM and an inhibition at 0.1 µM (human A2B AR; [10]) of 19.9 ± 1.85%.
